pEC50: −log10 of the molar value.
What was measured:
FXR = biological target: T1, FXR (Rattus norvegicus, UniProt Q62735); test: cell-based
T1 sequence (Q62735 1-469): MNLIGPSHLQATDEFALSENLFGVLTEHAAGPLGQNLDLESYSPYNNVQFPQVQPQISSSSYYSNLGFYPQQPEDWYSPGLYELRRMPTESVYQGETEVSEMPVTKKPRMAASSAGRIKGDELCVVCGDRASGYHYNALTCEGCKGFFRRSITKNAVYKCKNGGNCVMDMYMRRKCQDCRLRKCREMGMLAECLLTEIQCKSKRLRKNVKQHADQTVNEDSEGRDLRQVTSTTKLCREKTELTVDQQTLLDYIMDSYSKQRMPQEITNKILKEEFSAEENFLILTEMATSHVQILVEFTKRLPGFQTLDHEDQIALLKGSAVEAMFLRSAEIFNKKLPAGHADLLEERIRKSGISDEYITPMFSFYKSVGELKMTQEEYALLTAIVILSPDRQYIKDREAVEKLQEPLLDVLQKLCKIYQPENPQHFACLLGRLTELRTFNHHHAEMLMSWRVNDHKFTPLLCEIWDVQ
T1 sequence (P28700 1-467 partner): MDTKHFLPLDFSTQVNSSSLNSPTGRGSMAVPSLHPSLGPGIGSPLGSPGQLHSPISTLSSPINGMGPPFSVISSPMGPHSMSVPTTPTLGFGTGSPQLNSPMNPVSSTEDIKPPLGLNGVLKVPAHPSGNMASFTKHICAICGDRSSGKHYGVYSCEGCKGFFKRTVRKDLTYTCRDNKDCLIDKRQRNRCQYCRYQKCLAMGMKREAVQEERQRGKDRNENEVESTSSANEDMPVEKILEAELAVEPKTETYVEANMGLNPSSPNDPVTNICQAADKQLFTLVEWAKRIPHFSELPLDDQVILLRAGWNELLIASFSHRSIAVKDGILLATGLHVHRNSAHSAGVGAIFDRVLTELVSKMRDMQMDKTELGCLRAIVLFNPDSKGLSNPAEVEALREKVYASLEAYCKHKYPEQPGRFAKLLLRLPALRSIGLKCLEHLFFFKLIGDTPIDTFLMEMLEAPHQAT
Protocol: These experiments employed a mammalian cell culture system using Chinese hamster ovary cells (CHO) to evaluate the transcriptional function of Drosophila melanogaster EcR and USP using methods described previously (U.S. Patent Application Publication No: 2005/0049230; Henrich et al, 2003). Cells were seeded in 6-well polypropylene culture plates (Falcon) with 10^5 cells per well on the day prior to transfection. Transfection was subsequently performed using either calcium phosphate (Kitareewan et al., 1996, Mol. Biol. Cell, 7:1153-1196) or a GenePorter reagent (Gene Therapy Systems, Inc; San Diego, Calif.) following manufacturer's protocols. Each well received 1.25 μg of (EcRE)5-ΔMTV-CAT (five copies of the hsp27 EcRE inserted into an mouse mammary tumor virus (MTV) promoter upstream of the chloramphenicol acetyltransferase (CAT) gene) or (EcRE)5-ΔMTV-LUC (the same promoter attached to firefly luciferase), 1.25 μg of pCH111 (SV40 early promoter linked to the β-galactosidase gene) to normalize CAT activity, and 0.25 μg of each expression plasmid (EcR, FXR, RXR, USP) that was tested. The cells were incubated with plasmid DNA for seven hours and then washed with 1×PBS. Muristerone A (murA; Alexis Biochemicals) or 20-hydroxyecdysone (20E; Sigma) dissolved in ethanol to a concentration of 10 mM was diluted as necessary to the final assay concentration (FAC) in 2 ml of fresh incubation medium that was then applied to the cells. Similarly, JHIII (Sigma) was dissolved in dimethyl sulfoxide (DMSO) to a concentration of […] and diluted into the incubation medium to its final assay concentration (20, 40, 80, 160 μM). […] A corresponding volume of ethanol and DMSO were added to control cells for all experiments. For all experiments, the cells were allowed to incubate with the medium for 24 hours before collection and cell lysates were prepared by described methods (Kitareewan et al., 1996). Both β-galactosidase and CAT reporter activity were measured based on previously used methods (Kitareewan et al, 1996). Luciferase assays using luciferrin followed the specifications of the manufacturer.
Transcriptional activity, measured as ^14C-chloramphenicol counts (for measuring CAT activity) or relative luciferase activity (RLU) was quantified for each cell lysate. The counts were then normalized by adjusting for differences in β-galactosidase activity, since β-galactosidase expression is controlled by a constitutive promoter and provides an estimate of cell mass. Data were normalized as fold-induction based on differences in reporter gene activity between hormonally treated and control cells.
In these experiments, candidate juvenoids were tested for their ability to activate FXR mediated transcription by transfecting Chinese hamster ovary (CHO) cells using the FXR plasmid, mouse RXRα, and the ΔMTV-(EcRE)5-CAT reporter as described herein. An RXR-dependent CRBPII-CAT reporter plasmid was employed in parallel assays to discern activators specific for this receptor.

insect = details: from Schneiderman and Gilbert, Science 143; cited from earlier work
[1] = final dose of 50 ∝M, 1 = induction less than 2-fold below cytotoxic doses
[2] = dose 20 μM, 1 = no increase over vehicle

Question: With `CC(C)=CCCC(C)=CCCC(C)=CC=O` [farnesal] as the compound, how does the “FXR-dependent CAT activity, induction” value (FXR; 50 μM) read?
Answer: Its value is 2 fold.

Question: What about the “FXR ACTIVITY (fold-induction)” value (FXR; [1]) of the same compound?
Answer: The value was 2 fold-induction.

Question: And the “JH ACTIVITY (units/g)” value (insect)?
Answer: The value was 32 units/g.

Question: For `CC(=O)OCC=C(C)CCC=C(C)CCC=C(C)C` [farnesyl acetate], which “JH ACTIVITY (units/g)” value (insect) is on record?
Answer: Its value is 5.4 units/g.

Question: With `CC(C)=CCC/C(C)=C/CO` [geraniol] as the compound, how does the “FXR-dependent activity, induction” value (FXR; dose not stated) read?
Answer: The value was “neither the monoterpenes linalool (200 μM) nor geraniol were effective”.

Question: What about the “FXR ACTIVITY (fold-induction)” value (FXR; [1]) of the same compound?
Answer: Its value is 1 fold-induction.

Question: What about the “JH ACTIVITY (units/g)” value (insect) of the same compound?
Answer: The value was 0 units/g.

Question: With `CC(C)CCCC(C)CCCC(C)CCO` (centres unmarked) [hexahydrofarnesol] as the compound, how does the “JH ACTIVITY (units/g)” value (insect) read?
Answer: The value was 0 units/g.

Question: For `C=CC(C)(O)CCCC(C)CCCC(C)CCCC(C)C` (centres unmarked) [isophytol], which “JH ACTIVITY (units/g)” value (insect) is on record?
Answer: Its value is 0 units/g.

Question: Which “JH ACTIVITY (units/g)” value (insect) does the source give for `C=CC(C)(O)CCC=C(C)C` (centres unmarked) [linalool] here?
Answer: Its value is 0.08 units/g.

Question: Which “FXR-dependent activity, induction” value (FXR; 10 μM) does the source give for `CCCC(=O)O[C@@H]1[C@@H](C)[C@@]2(O)[C@@H](C=C(CO)C[C@]3(O)C(=O)C(C)=C[C@@H]23)[C@@H]2C(C)(C)[C@]12OC(=O)CCC` [phorbol 12,13-dibutyrate] here?
Answer: Its value is 2 fold.

Question: For `C/C(=C\CO)CCC[C@H](C)CCC[C@H](C)CCCC(C)C` [phytol], which “FXR-dependent CAT activity, induction” value (FXR; 50 μM) is on record?
Answer: Its value is “three times”.

Question: And the “FXR ACTIVITY (fold-induction)” value (FXR; [1])?
Answer: The value was 3 fold-induction.

Question: And the “JH ACTIVITY (units/g)” value (insect)?
Answer: Its value is 32 units/g.

Question: For `CC1(C)[C@@H]2C[C@H]1[C@@](C)(O)[C@@H](O)C2` [pinane diol], which “FXR-dependent activity, induction” value (FXR; 0.5 mM) is on record?
Answer: The value was 5 fold.

Question: With `OCc1ccc2c(c1)OCO2` [piperonyl alcohol] as the compound, how does the “FXR-dependent activity, induction” value (FXR; dose not stated) read?
Answer: Its value is “inactive”.

Question: Which “FXR-dependent activity, induction” value (FXR; dose not stated) does the source give for `O=C(O)c1ccc2c(c1)OCO2` [piperonylic acid] here?
Answer: Its value is “inactive”.

Question: With `COc1cc2c(cc1OC)OC(C)(C)C=C2` [precocene II] as the compound, how does the “FXR-dependent activity, induction” value (FXR; dose not stated) read?
Answer: Its value is 15 fold.

Question: And the pEC50 (FXR; read-out: EC50 for FXR-dependent CAT activity)?
Answer: Its pEC50 is 3.82.

Question: Which “FXR ACTIVITY (fold-induction)” value (FXR; [1]) does the source give for `CC(COc1ccc(Oc2ccccc2)cc1)Oc1ccccn1` (centres unmarked) [pyriproxyfen] here?
Answer: Its value is 9 fold-induction.

Question: Which “FXR-dependent activity, induction” value (FXR; dose not stated) does the source give for `O=C(/C=C/c1ccc(O)c(O)c1)O[C@H](Cc1ccc(O)c(O)c1)C(=O)O` [rosemarinic acid] here?
Answer: The value was “ineffective”.

Question: Which “FXR ACTIVITY (fold-induction)” value (FXR; [2]) does the source give for `C=C(C)[C@H]1Cc2c(ccc3c2O[C@@H]2COc4cc(OC)c(OC)cc4[C@@H]2C3=O)O1` [rotenone] here?
Answer: The value was 1 fold-induction.

Question: What about the “FXR-dependent activity, induction” value (FXR; dose not stated) of the same compound?
Answer: The value was “inactive”.

Question: Which “FXR-dependent CAT activity, induction” value (FXR; 20 μM) does the source give for `COc1cc2c(cc1OC)[C@@H]1C(=O)c3ccc(O)c(CC=C(C)C)c3O[C@@H]1CO2` [rotenonic acid] here?
Answer: Its value is 20 fold.

Question: And the “FXR ACTIVITY (fold-induction)” value (FXR; [2])?
Answer: Its value is 20 fold-induction.

Question: For `COc1cc(C2Oc3cc([C@H]4Oc5cc(O)cc(O)c5C(=O)[C@@H]4O)ccc3OC2CO)ccc1O` (some centres unmarked) [silybin], which “FXR-dependent CAT activity, induction” value (FXR; 50 μM) is on record?
Answer: Its value is 18 fold.

Question: And the “FXR ACTIVITY (fold-induction)” value (FXR; dose 100 μM, 1 = no increase over vehicle)?
Answer: The value was 10 fold-induction.

Question: With `CC(C)=CCC/C(C)=C/CC/C(C)=C/CC/C(C)=C/CC/C(C)=C/CC/C(C)=C/CC/C(C)=C/CC/C(C)=C/CC/C(C)=C/CO` [solanesol] as the compound, how does the “JH ACTIVITY (units/g)” value (insect) read?
Answer: Its value is 0.05 units/g.

Question: With `COc1ccc(-c2cc(=O)c3c(OC)c(OC)c(OC)c(OC)c3o2)cc1` [tangeretin] as the compound, how does the “FXR-dependent CAT activity, induction” value (FXR; 50 μM) read?
Answer: Its value is 4 fold.

Question: Which “FXR-dependent CAT activity, induction” value (FXR; 50 μM) does the source give for `O=C1c2c(O)cc(O)cc2O[C@H](c2ccc(O)c(O)c2)[C@H]1O` [taxifolin] here?
Answer: Its value is “unresponsive”.

Question: Which “FXR-dependent CAT activity, induction” value (FXR; 100 nM) does the source give for `Clc1cc2c(cc1Cl)Oc1cc(Cl)c(Cl)cc1O2` [tetrachloro- dibenzo-p- dioxin, 2,3,7,8-tetrachlorodibenzo-p-dioxin] here?
Answer: Its value is 15 fold.

Question: And the “FXR ACTIVITY (fold-induction)” value (FXR; dose 0.1 μM)?
Answer: Its value is 15 fold-induction.

Question: With `Cn1cnc2c1c(=O)[nH]c(=O)n2C` [theobromine] as the compound, how does the “FXR-dependent activity, induction” value (FXR; dose not stated) read?
Answer: The value was “ineffective”.

Question: With `O=c1[nH]c(=O)c2[nH]cnc2[nH]1` [xanthine] as the compound, how does the “FXR-dependent activity, induction” value (FXR; dose not stated) read?
Answer: Its value is “ineffective”.

Question: For `CC(=O)/C=C/C1C(C)=CCCC1(C)C` (stereo not drawn) [α-ionone], which “FXR ACTIVITY (fold-induction)” value (FXR; dose 150 μM) is on record?
Answer: The value was 10 fold-induction.

Question: For `CC1=CCC(C(C)(C)O)CC1` (stereo not drawn) [α-terpineol], which “FXR-dependent activity, induction” value (FXR; 800 μM) is on record?
Answer: Its value is “two-fold”.

Question: What about the “FXR ACTIVITY (fold-induction)” value (FXR; dose 400 μM) of the same compound?
Answer: The value was 402 fold-induction.

Question: What does the source list for `C[C@H]1[C@H](C)CC[C@]2(C)CC[C@]3(C)C(=CC[C@@H]4[C@@]5(C)CC[C@@H](O)[C@](C)(C(=O)O)[C@@H]5CC[C@]43C)[C@H]12` [β-boswellic acid]?
Answer: FXR-dependent activity, induction (FXR; 25 μM): 11 fold; FXR ACTIVITY (fold-induction) (FXR; dose 25 μM): 11 fold-induction

Question: Which “FXR ACTIVITY (fold-induction)” value (FXR; dose 150 μM) does the source give for `CC(=O)/C=C/C1=C(C)CCCC1(C)C` [β-ionone] here?
Answer: The value was 10 fold-induction.

Question: Which “FXR ACTIVITY (fold-induction)” value (FXR; [2]) does the source give for `CC(C)=CCC/C(C)=C/CC/C(C)=C/CC[C@]1(C)CCc2cc(O)c(C)c(C)c2O1` [γ-tocotrienol] here?
Answer: Its value is 1 fold-induction.

Question: With aroclor 1254 as the compound, how does the “FXR-dependent CAT activity, induction” value (FXR; 5 μM) read?
Answer: Its value is 5 fold.

Question: For geranyl linalool, which “JH ACTIVITY (units/g)” value (insect) is on record?
Answer: Its value is 0.14 units/g.

Question: With toxaphenes as the compound, how does the “FXR-dependent CAT activity, induction” value (FXR; 5 μM) read?
Answer: The value was 9 fold.

— US8637237B2, “Methods, compositions, and systems for the identification of species-specific or developmental stage-specific insecticides” (The University of North Carolina at Greensboro, priority 2003, dated 2014)
